Article PMC10650714, “Double Attack to Oxidative Stress in Neurodegenerative Disorders: MAO-B and Nrf2 as Elected Targets” (Molecules, 2023)
Counter-ions that a name gives are not always drawn.

Tests used:
[1] = molecular target: T1, recombinant hMAO-B (Homo sapiens, UniProt P27338); assay: hMAO-B activity assay (kynuramine, fluorimetric); format: biochemical; settings: for SI (selectivity index): calculated as hMAO-A Ki/hMAO-B Ki; for Ki: kynuramine [S] = 10 µM, pH 7.4, 37 °C, mean ± S.D., read-out: hMAO-B Ki
T1 construct: purchased Fluka-Sigma-Aldrich s.r.l; (Italy); host or cells: Baculovirus infected BT1 cells
T1 sequence (P27338 1-520): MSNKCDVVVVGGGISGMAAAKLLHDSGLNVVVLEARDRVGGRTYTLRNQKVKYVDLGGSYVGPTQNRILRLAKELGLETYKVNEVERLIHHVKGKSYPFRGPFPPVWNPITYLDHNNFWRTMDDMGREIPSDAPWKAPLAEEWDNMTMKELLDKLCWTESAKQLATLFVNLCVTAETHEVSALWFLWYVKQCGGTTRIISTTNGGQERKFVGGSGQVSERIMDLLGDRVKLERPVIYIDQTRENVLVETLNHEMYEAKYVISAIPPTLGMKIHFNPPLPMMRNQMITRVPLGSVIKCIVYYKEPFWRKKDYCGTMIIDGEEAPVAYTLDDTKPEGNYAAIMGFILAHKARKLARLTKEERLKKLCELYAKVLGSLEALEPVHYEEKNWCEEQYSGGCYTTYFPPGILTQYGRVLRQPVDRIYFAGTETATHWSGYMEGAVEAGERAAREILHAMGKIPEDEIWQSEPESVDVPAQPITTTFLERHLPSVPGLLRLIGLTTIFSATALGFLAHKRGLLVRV
Experimental: (§1) Human recombinant hMAO-A and hMAO-B expressed in Baculovirus infected BT1 cells (5 mg/mL) and horseradish peroxidases were purchased from Fluka-Sigma-Aldrich s.r.l. (Italy). A Cary Eclipse fluorimeter (Varian Inc., Palo Alto, CA, USA) was used for fluorescence measurements. […] At first, the peroxidase-coupled continuous assay that detect the H2O2 generation rate was considered. It uses the Amplex Red reagent as the fluorogenic substrate for horseradish peroxidase.
(§2) By applying this method, hMAO activity assays were performed in K/Pi 0.1 M, EDTA 1 mM (total volume: 200 μL; pH 7.4, T = 37 °C), in the presence and in absence of various concentrations of the different compounds (0.2–20 μM and 2–50 μM in the case of hMAO–B and hMAO-A, respectively).
(§3) MAOs stock solutions were diluted with assay buffer in the presence or absence of the tested compound to obtain a final concentration of 0.005 mg/mL for MAO-A and 0.010 mg/mL for MAO-B; then, kynuramine (10–300 μM final concentration) was added to the assay solution. After 45–60 min of incubation at 37 °C, the reaction was stopped by the addition of 2 M NaOH (80 μL) and 480 μL of distilled water. Kynuramine deaminated by MAO spontaneously cyclizes to provide 4-hydroxyquinoline, the amount of which was determined by the fluorescence intensity of the peak of its emission spectra (λexc = 330 nm and λem 330–530 nm). Then, the rate of reaction was calculated using a specific calibration curve (in the presence of the same amount of the tested compound) built with the standard 4-hydroxyquinoline.
(§4) Under these experimental conditions, the Michaelis–Menten equation for rate of reaction, can be simplified as follows: V ≈ (Vmax/KM) [E]0[S]0 [49]. In the presence of an inhibitor, one or both the kinetic parameters, KM and Vmax, might be affected by its presence, depending on the inhibition mechanism. In particular, in the presence of a reversible inhibitor, both the kinetic parameters could be affected, and the apparent kinetic parameter would then become: KM I = KM,0 (1 + [I]/Ki)/(1 + [I]/(αKi)), and VmaxI = Vmax0/(1 + [I]/(αKi)), where α is the factor indicating how much the dissociation constant of the enzyme-substrate-I complex is different from that of the enzyme–I complex (also named Ki). Consequently, the ratio of the initial rate of reaction in the absence (Vo) and in the presence (VI) of the tested compound (Vo/VI) can be simplified to the ratio of (Vmax/KM)o/(Vmax/KM)I ≈ (1 + [I]/Ki).
(§5) To study the mechanism of inhibition, the steady-state kinetic parameters (Vmax and Km) of MAO-A and MAO-B were determined by performing experiments at different substrate concentrations and in the absence and presence of different concentrations of the tested compound. Vmax and Km were calculated by fitting the Michaelis–Menten equation to the experimental data (initial rate of reactions vs. substrate concentrations), with Sigma Plot software, version 9.0 (Jandel Scientific, San Rafael, CA, USA).

[2] = molecular target: T2, recombinant hMAO-A (Homo sapiens, UniProt P21397); assay: hMAO-A activity assay (kynuramine, fluorimetric); format: biochemical; settings: kynuramine [S] = 10 µM, pH 7.4, 37 °C; mean ± S.D.; read-out: hMAO-A Ki
T2 construct: purchased Fluka-Sigma-Aldrich s.r.l; (Italy); host or cells: Baculovirus infected BT1 cells
T2 sequence (P21397 1-527): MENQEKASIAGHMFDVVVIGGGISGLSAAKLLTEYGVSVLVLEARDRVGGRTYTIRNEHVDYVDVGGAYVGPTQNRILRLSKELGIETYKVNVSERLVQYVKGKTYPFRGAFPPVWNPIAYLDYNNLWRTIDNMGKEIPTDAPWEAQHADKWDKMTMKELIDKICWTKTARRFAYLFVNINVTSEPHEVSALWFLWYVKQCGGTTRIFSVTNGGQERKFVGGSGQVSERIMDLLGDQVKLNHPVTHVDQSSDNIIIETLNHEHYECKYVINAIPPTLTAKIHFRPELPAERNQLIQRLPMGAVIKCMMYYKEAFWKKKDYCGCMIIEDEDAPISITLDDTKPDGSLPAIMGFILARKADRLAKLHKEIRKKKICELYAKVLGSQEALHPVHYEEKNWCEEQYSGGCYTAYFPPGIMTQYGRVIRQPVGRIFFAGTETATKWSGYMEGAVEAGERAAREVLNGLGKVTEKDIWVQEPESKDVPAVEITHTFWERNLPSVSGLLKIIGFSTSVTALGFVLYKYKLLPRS
Experimental: as §1, §2, §3, §4, §5

[3] = test system: ROS production in HepG2 cells; assay: Intracellular ROS generation rate (DCF-DA); format: cell-based, human; settings: 5 µM, antimycin A 10 µM, 30 min
Experimental: Thus, on the basis of the hMAO-B inhibitory potency and on the Nrf2 nuclear translocation results, the most promising compounds 2 and 3 were chosen for the evaluation of their antioxidant activity in the human hepatic HepG2 cells, a valuable cellular system to assess antioxidant properties of the compounds [43, 44]. CAPE and pioglitazone were also tested as reference compounds. HepG2 cells were pre-loaded with dichlorofluorescein diacetate (DCF-DA), a fluorescent probe to detect ROS generation. […] Immediately, antimycin A (10 µM), an inhibitor of the complex III of the mitochondrial electron transport chain, was also added as an ROS inducer. The oxidation rate of DCF, that is, the generation rate of ROS, was detected for 30 min, and for each sample, the corresponding control was also run.
HepG2 cells (human hepatocellular carcinoma) were purchased from the American Type Culture Collection (ATCC HB-8065). Cells were grown in MEM (M0894, Merck Life Sciences S.r.l., Milan, Italy) supplemented with 2.2 g/L NaHCO3 (S5761, Merck Life Sciences S.r.l., Milan, Italy), 100 U/mL penicillin, 100 μg/mL streptomycin and 0.25 μg/mL amphotericin B (A5955, Merck Life Sciences S.r.l., Milan, Italy) and 10% foetal calf serum (F7524, Merck Life Sciences S.r.l., Milan, Italy). Cells were cultured at 37 °C in a humidified atmosphere incubator containing 5% carbon dioxide in air.
The intracellular production of ROS was detected via a fluorometric method using 2′,7′-dichlorofluorescein diacetate (D6883, Merck Life Sciences S.r.l., Milan, Italy) as probe. HepG2 cells (6 × 10^3/well) were seeded into a 96-well culture plate in 200 µL of a complete growth medium and incubated for 48 h in standard conditions. The medium was then removed, and cells were washed with 5 mM of PBS–glucose. Then, cells were loaded with 10 μM of 2′,7′-dichlorofluorescein diacetate in 5 mM of PBS–glucose at 37 °C in the dark for 20 min, washed with 5 mM of PBS–glucose, treated with the test compounds at indicated concentrations in 5 mM of PBS–glucose and then analysed. Fluorescence intensity was recorded for 30 min at λemx = 485 nm and λem = 527 nm, using a Victor X3 Multilabel plate reader (Perkin Elmer). The rate of ROS generation was calculated relative to untreated cells (controls) after subtraction of autofluorescence value. Results were presented as the mean values of at least three independent experiments performed with six replicates.

[4] = test system: Nrf2 nuclear translocation in SH-SY5Y cells; assay: Nrf2 nuclear translocation (Western blot of nuclear extracts); format: cell-based, human; settings: 5 μM, 3 h
From the text: In physiological conditions, the repressor Keap1 traps Nrf2 at the cytosolic level, preventing the activation of Nrf2 pathway. The disruption of Keap1–Nrf2 interaction allows for Nrf2 nuclear translocation, thus resulting in the transcriptional activation of its target cytoprotective genes. […] We and others have previously developed several compounds bearing caffeic and ferulic fragments able to activate Nrf2 in terms of the up-regulation of Nrf2 expression, translocation into the nucleus and induction of the Nrf2-dependent defensive genes, with (pro)electrophilic features emerging as key players. Herein, to analyse the effect of the new molecules on the Nrf2 downstream cascade, the ability of compounds 1–5 to increase Nrf2 nuclear translocation was preliminary evaluated as a pivotal step in Nrf2 signalling activation (Figure 6). Based on MAO-B inhibitory potency and cell toxicity assay, compounds were studied in SH-SY5Y human neuroblastoma cells at the concentration of 5 μM. Given the high structural analogy with our derivatives, we selected the well-known Nrf2 inducer CAPE [37, 38] as the reference compound, and verified its ability to induce Nrf2 nuclear translocation at different concentrations, ranging from 5 µM to 50 µM in our experimental model (Figure S6). Nrf2 nuclear content was assessed via Western blot analysis. […] Consistently, data from literature highlight discrepancies about pioglitazone-mediated Nrf2 activation, indicating its ability to activate Nrf2 in longer timeframes and different in vitro and in vivo experimental conditions. […] The preliminary docking performed on human Keap-1 confirms the excellent positioning of compound 2 within the BTB domain pocket, where cysteine 151 is located (see Figure S5). […] Particularly, all these new molecules hold the characteristic (pro)electrophilic fragments, which however, in this case, resulted to be insufficient to activate Nrf2, as reported for other ferulic and caffeic derivatives. In this regard, optimal target interaction might play a major role, but further biological investigations are needed to fully clarify the mechanism of Nrf2 activation and the effect on the downstream expression of cytoprotective genes.
SH-SY5Y cells (5 × 106) were seeded in […] dishes and treated for 3 h with 5 μM compounds; afterward, the medium was removed, and cells were washed twice with ice-cold PBS. Cells were subsequently homogenized 15 times using a glass−glass Dounce homogenizer in 0.32 M sucrose, buffered with 20 mM Tris- HCl (pH 7.4), containing 2 mM EDTA, 0.5 mM EGTA, 50 mM β-mercaptoethanol and 20 μg/mL leupeptin, apotrinin and pepstatin. The homogenate was centrifuged at 300× g for 5 min to obtain the nuclear fraction. An aliquot of the nuclear fraction was used for protein assay via the Bradford method, whereas the remaining was boiled for 5 min after dilution with sample buffer and subjected to polyacrylamide gel electrophoresis and immunoblotting, as described.

| melting point [°C] | decrease in hMAO-B inhibitory potency in comparison with pioglitazone [1] [times] | SI (selectivity index) [1] | Ki [1] [nM] | Ki [2] [µM] | SMILES | effect on antimycin A-induced ROS [3] | Nrf2 nuclear translocation [4] |
| --- | --- | --- | --- | --- | --- | --- | --- |
| 150 to 151 | – | – | – | – | COC(=O)/C=C/C(=O)Oc1ccc(CC2SC(=O)NC2=O)cc1 (centres unmarked) (as salt: fumarate) [Compound 1, 4-((2,4-Dioxothiazolidin-5-yl)methyl)phenyl Methyl Fumarate] | – | – |
| – | 50 | 8.0 | 3140 ± 200 | 25 ± 4 | COC(=O)/C=C/C(=O)Oc1ccc(CC2SC(=O)NC2=O)cc1 (centres unmarked) [Compound 1, 4-((2,4-Dioxothiazolidin-5-yl)methyl)phenyl Methyl Fumarate] | – | – |
| 155 to 156 | – | 32.3 | 990 ± 150 | 32 ± 2 | COc1cc(/C=C/C(=O)Oc2ccc(CC3SC(=O)NC3=O)cc2)ccc1O (centres unmarked) [Compound 3, 4-((2,4-Dioxothiazolidin-5-yl)methyl)phenyl (E)-3-(4-hydroxy-3-methoxyphenyl)acrylate] | almost abolish the effect of antimycin A stimulus | – |
| 148 to 149 | – | 15.6 | 2500 ± 1000 | 39 ± 5 | O=C(/C=C/c1ccc(O)c(O)c1)Nc1ccc(CC2SC(=O)NC2=O)cc1 (centres unmarked) [Compound 4, (E)-3-(3,4-Dihydroxyphenyl)-N-(4-((2,4-dioxothiazolidin-5-yl)methyl)phenyl)acrylamide] | – | promoted Nrf2 translocation at a lower extent |
| 151 to 152 | – | 14.2 | 3300 ± 1000 | 47 ± 4 | COc1cc(/C=C/C(=O)Nc2ccc(CC3SC(=O)NC3=O)cc2)ccc1O (centres unmarked) [Compound 5, (E)-N-(4-((2,4-Dioxothiazolidin-5-yl)methyl)phenyl)-3-(4-hydroxy-3-methoxyphenyl)acrylamide] | – | promoted Nrf2 translocation at a lower extent |
